The results in this text go back to patent US20110054014A1, “PRENYLFLAVANONE COMPOUNDS AND USES THEREOF” (NatureWise Biotech & Medicals Corporation, priority 2008, published 2011).

In this data set the test system is Human breast cancer MCF-7 and MDA-MB-231 cells. The experiment in a line: Cytotoxicity assay (trypan blue exclusion). The note with it: for IC50: read-out: IC50 values.

The IC50 is the concentration needed to halve the response being measured.

Where two headings read alike, the source gives them in different places.

Description: Human breast cancer MCF-7 and MDA-MB-231 cells were purchased from the Food Industry Research and Development Institute (Hsinchu, Taiwan). The cells were cultured in Dulbecco's modified Eagle's medium (Gibco) containing 10% fetal bovine serum (FBS), a 1% dilution of penicillin-streptomycin, and 2 mM glutamine. Cells were maintained at 37° C. in a humidified atmosphere of 95% air and 5% CO2. However, MDA-MB-231 cells were cultured in L-15 medium (Gibco) containing 10% fetal bovine serum (FBS), a 1% dilution of penicillin-streptomycin, and 2 mM glutamine. Cells were maintained at 37° C. in a humidified atmosphere of 100% air and 0% CO2.
The cells (1.5×10^6 per dish) were cultured in a 100-mm dish and incubated for 14 h prior to treatment with DMSO or with different concentrations of propolins (2.5, 5.0, 10, and 20.0 μg/mL) for 48 h. The propolins were small compounds with their MWs ranging from 408-492 Da. These values were converted to their respective molarities.
The cells were counted and their viability was determined by trypan blue exclusion assay. The activity was shown as IC50 value (the concentration required to induce 50% cytotoxicity), and the average value was obtained from triplicate data points.

In the case of `CC(C)=CCC/C(C)=C/Cc1c(O)cc2c(c1O)C(=O)C[C@@H](c1ccc(O)cc1)O2` [Propolin J, 5,7,4′-trihydroxy-6-geranylflavanone], the IC50 (Homo sapiens, 48 h) turned out to be 36.8 µM. Take `CC(C)=CCC/C(C)=C/CC/C(C)=C/Cc1c(O)cc2c(c1O)C(=O)C[C@@H](c1ccc(O)c(O)c1)O2` [Propolin I, 5,7,3′,4′-tetrahydroxy-6-farnesylflavanone]: for the setting “Homo sapiens, 48 h”, the 50% inhibitory concentration (IC50) was 10.2 µM. Further, the “cytotoxic activity against human breast cancer cells” value (conclusion in words from Table 2) was “cytotoxic activity”. As to `CC(C)=CCC/C(C)=C/Cc1cc([C@@H]2CC(=O)c3c(O)cc(O)cc3O2)cc(O)c1O` [Propolin F, reference compound], the IC50 (concentration required to induce 50% cytotoxicity, 48 h treatment, human breast cancer cells, cell line not given, one representative of three independent experiments) came to 47.2 µM.
